Several values for one entry are separate records, joined by “and”; a condition that tells them apart may be missing. Identical values can stand only once.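 Exposure lasted 48 hours, with cells grown in 96-well plates and compounds tested at five concentrations. The concentration for 50% growth inhibition is given as GI50. TGI denotes the concentration required for complete inhibition of growth.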
What follows are molecules tested on IGROV1 ovarian (assay: NCI tumour cell line growth inhibition, 48 h).

Compound | TGI | GI50
CCOC(=O)c1c(CN2CCCC2)n(-c2ccccc2)c2cc(Br)c(O)cc12 | 33.5 µM | 
COc1cccc(Nc2nc(-c3cccs3)nc3cc(OC)c(OC)cc23)c1 | 69.3 µM | 
Nn1c(-c2ccccc2)n[nH]c1=O | > 100 µM | 
O=C1c2cc3c(cc2-c2c1c1ccc(F)cc1c(=O)n2C[C@H](O)[C@@H](O)[C@H](O)CO)OCO3 | > 100 µM | 0.302 µM
Nn1c(Nc2ccc(S(=O)(=O)Nc3ncccn3)cc2)nnc(/C=C/c2c(O)ccc3ccccc23)c1=O | > 100 µM | 
Cc1cc(-c2nc3ccc(F)cc3s2)ccc1NC(=O)[C@H](C)N | 20 µM | 
Cc1cc(Nc2ccc(S(=O)(=O)O)c3cc(S(=O)(=O)O)cc(S(=O)(=O)O)c23)c2ccccc2n1 | > 100 µM | 
Cc1cc(C)nc(NS(=O)(=O)c2ccc(NC(=O)c3ccc4nc5ccccc5c(Nc5ccc(S(N)(=O)=O)cc5)c4c3)cc2)n1 | > 100 µM | 
Nc1c(-c2ccc(Cl)c(Cl)c2)c2ccc([N+](=O)[O-])cc2c(=O)n1-c1nc2ccccc2s1 | > 100 µM | 
COC(=O)c1c(C)nc2c1cc(O)c1[nH]c(C)c(C)nc12 | > 100 µM | 
Cn1c2ccc3cc2c(=S)c2cc(ccc21)OCCOCCOCCOCCOCCOCCO3 | > 10 µM | 
O=[N+]([O-])c1cc(C=NC23CC4CC(CC(C4)C2)C3)ccc1Cl | 47.5 µM | 
COc1cc(S(=O)(=O)Nc2nc(-c3ccc(N4C(=O)C(CC(=O)O)SC4c4cccs4)cc3)cs2)ccc1Cl (stereo not drawn) | 66 µM | 
CC(=O)N(C(=O)CC(=O)N1N=C(c2ccccc2)C(N=Nc2ccccc2[N+](=O)[O-])C1=O)c1ccc(Cl)cc1 (stereo not drawn) | > 10 µM | 
Oc1ccccc1CNCc1nc2ccccc2[nH]1 | > 100 µM | 
COc1ncc(/C=C2\OC(=O)c3ccccc32)c(OC)n1 | > 100 µM | 
CC(=O)Nn1c(=S)[nH]c2ccccc21 | > 100 µM | 
C[C@]12CCC3C4=C(CCC3C1CCC2=O)C(=O)[C@H]1O[C@H]1C4=O (stereo partly drawn) | 4.74 µM | 
CCCCOC(=O)Nc1ccc(S(=O)(=O)Nc2ccccc2Cl)cc1 | 49 µM | 
Oc1[nH]c2ccccc2c1N=Nc1nc(-c2ccc(Br)cc2)cs1 | 23.1 µM | 
N#CC(Cc1ccccc1)N(CCC1=CCCCC1)C(c1ccccc1)c1ccccc1 (stereo not drawn) | > 100 µM | 
C#CCn1c(=O)c2ccccc2n(CC#C)c1=O | > 10 µM | 

Compound | TGI | GI50
O=C1CCC2(c3ccc(Cl)cc3)Nc3ccncc3N12 (stereo not drawn) | > 10 µM | 
Nc1ncnc2c1[nH]c(=O)n2-c1ccccc1 | > 100 µM | 
[N-]=[N+]=NC(c1ccccc1)(c1ccccc1)c1ccccc1 | 63.7 µM | 
CC1CN(C)c2ccccc2N=C1NN (stereo not drawn) | > 100 µM | 
C(=C(c1ccc(OC2CCCCO2)cc1)c1ccc(OC2CCCCO2)cc1)c1ccccc1 (stereo not drawn) | 1.71 µM | 
COc1ccc(CN2C(=O)/C(=C\c3cc(OC)c(OC)c(OC)c3)c3ccccc32)cc1 | 4.64 µM | 1.72 µM
N[C@@H](CCC(=O)NCP(=O)(O)O)C(=O)O | > 100 µM | 
CCOP(=O)(OCC)C(F)(F)c1ccc(CC(NC(=O)OC(C)(C)C)C(=O)O)cc1 (stereo not drawn) | > 10 µM | 
NC(=O)C(=Cn1c(=S)[nH]c2ccc([N+](=O)[O-])cc21)C(N)=O | > 100 µM | 
O=C(C1OC1c1ccc(Br)cc1O)C12CC3CC(CC(C3)C1)C2 (stereo not drawn) | > 100 µM | 
Cc1ccc(N(Cc2ccccc2)Cc2ccccc2)cc1 | > 100 µM | 
c1ccc2c3[nH]c(c2c1)=Nc1ccc(cc1)-c1nc2cc(ccc2o1)N=c1[nH]c(c2ccccc12)=Nc1ccc2nc(oc2c1)-c1ccc(cc1)N=3 | > 100 µM | 
Nc1nc(-c2ccccc2)nc2oc(-c3cccs3)nc12 | > 100 µM | 
S=C(N/N=C(/c1ccccc1)c1ccccn1)N(Cc1ccccn1)Cc1ccccn1 | 2.03 µM | 
O=c1[nH]c(=S)[nH]c2c1C(c1ccc([N+](=O)[O-])cc1)c1c([nH]c(=S)[nH]c1=O)O2 | > 100 µM | 
Cn1c(=O)c2c(nc3n2CC(C(=O)O)N3)n(C)c1=O (stereo not drawn) | > 100 µM | 
Cc1ccc(-c2cc(-c3ccco3)c(C#N)c(=S)n2C2OC(CO)C(O)C(O)C2O)cc1 (stereo not drawn) | 74.5 µM and > 100 µM | 21.4 µM and 47.1 µM
Cc1oc2c(cc(O)c3cc(O)ccc32)c2cccc1-2 | > 100 µM | 
NC(N)=Nc1ccc(CC(N)NCC(=O)O)cc1 (stereo not drawn) | > 25 µM | 
COc1ccc(-n2c(C)nc3ccc(NC(=S)Nc4ccccc4)cc3c2=O)cc1 | > 100 µM | 
O=C(NCc1ccccc1)c1n[nH][nH]c1=O | > 100 µM | 

What follows are molecules tested on NCI-H226 lung (assay: NCI tumour cell line growth inhibition, 48 h).

Compound | TGI | GI50
COc1cccc(Nc2nc(-c3cccs3)nc3cc(OC)c(OC)cc23)c1 | > 100 µM | 
Nn1c(-c2ccccc2)n[nH]c1=O | > 100 µM | 
Cc1cc(-c2nc3ccc(F)cc3s2)ccc1NC(=O)[C@H](C)N | 19.3 µM | 
C=CC1(CC/C(=C\[N+](=O)[O-])c2ccc(OC)c(OC)c2)OCC(C)(C)CO1 | 56 µM | 
Cc1cc(Nc2ccc(S(=O)(=O)O)c3cc(S(=O)(=O)O)cc(S(=O)(=O)O)c23)c2ccccc2n1 | > 100 µM | 
Cc1cc(C)nc(NS(=O)(=O)c2ccc(NC(=O)c3ccc4nc5ccccc5c(Nc5ccc(S(N)(=O)=O)cc5)c4c3)cc2)n1 | > 100 µM | 
Nc1c(-c2ccc(Cl)c(Cl)c2)c2ccc([N+](=O)[O-])cc2c(=O)n1-c1nc2ccccc2s1 | 50.3 µM | 
CC1(C(=O)O)CCC2(C)CCC3(C)C(=CC(=O)C4C5(C)CCC(O)C(C)(C)C5CCC43C)C2C1 (stereo not drawn) | > 100 µM | 
NS(=O)(=O)c1nnc(NC(=O)Nc2ccc(Cl)c(Cl)c2)s1 | 65.8 µM | 
COC(=O)c1c(C)nc2c1cc(O)c1[nH]c(C)c(C)nc12 | > 100 µM | 
Cn1c2ccc3cc2c(=S)c2cc(ccc21)OCCOCCOCCOCCOCCOCCO3 | > 10 µM | 
O=[N+]([O-])c1cc(C=NC23CC4CC(CC(C4)C2)C3)ccc1Cl | > 81.3 µM | 
COc1cc(S(=O)(=O)Nc2nc(-c3ccc(N4C(=O)C(CC(=O)O)SC4c4cccs4)cc3)cs2)ccc1Cl (stereo not drawn) | > 100 µM | 
CC(=O)N(C(=O)CC(=O)N1N=C(c2ccccc2)C(N=Nc2ccccc2[N+](=O)[O-])C1=O)c1ccc(Cl)cc1 (stereo not drawn) | > 10 µM | 
Oc1ccccc1CNCc1nc2ccccc2[nH]1 | 87.4 µM | 
COc1ncc(/C=C2\OC(=O)c3ccccc32)c(OC)n1 | > 100 µM | 
CC(=O)Nn1c(=S)[nH]c2ccccc21 | > 100 µM | 
C[C@]12CCC3C4=C(CCC3C1CCC2=O)C(=O)[C@H]1O[C@H]1C4=O (stereo partly drawn) | 4.99 µM | 
C#CCn1c(=O)c2ccccc2n(CC#C)c1=O | > 10 µM | 

Compound | TGI | GI50
O=C1CCC2(c3ccc(Cl)cc3)Nc3ccncc3N12 (stereo not drawn) | > 10 µM | 
[N-]=[N+]=NC(c1ccccc1)(c1ccccc1)c1ccccc1 | 33.2 µM | 
CC1CN(C)c2ccccc2N=C1NN (stereo not drawn) | > 100 µM | 
C(=C(c1ccc(OC2CCCCO2)cc1)c1ccc(OC2CCCCO2)cc1)c1ccccc1 (stereo not drawn) | 3.17 µM | 
COc1ccc(CN2C(=O)/C(=C\c3cc(OC)c(OC)c(OC)c3)c3ccccc32)cc1 | 9.23 µM | 2.96 µM
CCOP(=O)(OCC)C(F)(F)c1ccc(CC(NC(=O)OC(C)(C)C)C(=O)O)cc1 (stereo not drawn) | > 10 µM | 
COc1ccc(-c2[nH]c3c4c(nc5c(c24)C(=O)CC(C)(C)C5)CC(C)(C)C3)cc1 | > 100 µM | 
CCC(=O)NCC1CCCN2CCCCC12 (stereo not drawn) | > 100 µM | 
NC(=O)C(=Cn1c(=S)[nH]c2ccc([N+](=O)[O-])cc21)C(N)=O | > 100 µM | 
O=C(C1OC1c1ccc(Br)cc1O)C12CC3CC(CC(C3)C1)C2 (stereo not drawn) | > 100 µM | 
Cc1ccc(N(Cc2ccccc2)Cc2ccccc2)cc1 | > 100 µM | 
Nc1nc(-c2ccccc2)nc2oc(-c3cccs3)nc12 | > 100 µM | 
S=C(N/N=C(/c1ccccc1)c1ccccn1)N(Cc1ccccn1)Cc1ccccn1 | 0.433 µM | 
O=c1[nH]c(=S)[nH]c2c1C(c1ccc([N+](=O)[O-])cc1)c1c([nH]c(=S)[nH]c1=O)O2 | > 100 µM | 
Cn1c(=O)c2c(nc3n2CC(C(=O)O)N3)n(C)c1=O (stereo not drawn) | > 100 µM | 
Cc1ccc(-c2cc(-c3ccco3)c(C#N)c(=S)n2C2OC(CO)C(O)C(O)C2O)cc1 (stereo not drawn) | 53.9 µM and > 100 µM | 13.4 µM and 32.4 µM
NC(N)=Nc1ccc(CC(N)NCC(=O)O)cc1 (stereo not drawn) | > 25 µM | 
COc1ccc(-n2c(C)nc3ccc(NC(=S)Nc4ccccc4)cc3c2=O)cc1 | > 100 µM | 
O=C(NCc1ccccc1)c1n[nH][nH]c1=O | > 100 µM | 

The molecules below were run on SF-539 CNS (assay: NCI tumour cell line growth inhibition, 48 h).

Compound | TGI [µM] | GI50 [µM]
COc1cccc(Nc2nc(-c3cccs3)nc3cc(OC)c(OC)cc23)c1 | 45.7 | 
Nn1c(-c2ccccc2)n[nH]c1=O | > 100 | 
O=C1c2cc3c(cc2-c2c1c1ccc(F)cc1c(=O)n2C[C@H](O)[C@@H](O)[C@H](O)CO)OCO3 | 0.138 | 0.0289
Cc1cc(-c2nc3ccc(F)cc3s2)ccc1NC(=O)[C@H](C)N | 14.9 | 
Cc1cc(Nc2ccc(S(=O)(=O)O)c3cc(S(=O)(=O)O)cc(S(=O)(=O)O)c23)c2ccccc2n1 | > 100 | 
Cc1cc(C)nc(NS(=O)(=O)c2ccc(NC(=O)c3ccc4nc5ccccc5c(Nc5ccc(S(N)(=O)=O)cc5)c4c3)cc2)n1 | > 100 | 
Nc1c(-c2ccc(Cl)c(Cl)c2)c2ccc([N+](=O)[O-])cc2c(=O)n1-c1nc2ccccc2s1 | 16.3 | 
CC1(C(=O)O)CCC2(C)CCC3(C)C(=CC(=O)C4C5(C)CCC(O)C(C)(C)C5CCC43C)C2C1 (stereo not drawn) | 32.5 | 
NS(=O)(=O)c1nnc(NC(=O)Nc2ccc(Cl)c(Cl)c2)s1 | 34.1 | 
COC(=O)c1c(C)nc2c1cc(O)c1[nH]c(C)c(C)nc12 | > 100 | 
Cn1c2ccc3cc2c(=S)c2cc(ccc21)OCCOCCOCCOCCOCCOCCO3 | > 10 | 

Source: PubChem BioAssay (NCI)
